Two compounds from ChEMBL document CHEMBL4311969, “Polygala tenuifolia-Acori tatarinowii herbal pair as an inspiration for substituted cinnamic α-asaronol esters: Design, synthesis, anticonvulsant activity, and inhibition of lactate dehydrogenase study” (Eur J Med Chem, 2019) can be followed below.

Broadly, the Tmax is the time at which the peak concentration occurs. Usually Ki stands for the dissociation constant of the complex between target and ligand, obtained from inhibition or displacement.

A short description of data set [1]: Tmax in Sprague-Dawley rat heart at 50 mg/kg, po. Type of data set: ADME, organism-based.
Data set [2] is described as follows: Drug uptake in Sprague-Dawley rat brain at 50 mg/kg, po. The data set is classed as ADME, organism-based. The settings on record: in vivo.
Data set [3] in a line: Drug uptake in Sprague-Dawley rat heart at 50 mg/kg, po. The data set is classed as ADME, organism-based. The settings on record: in vivo.
Data set [4] in a line: Tmax in Sprague-Dawley rat brain at 50 mg/kg, po. Type of data set: ADME, organism-based.
Data set [5] is described as follows: Tmax in Sprague-Dawley rat kidney at 50 mg/kg, po. Type of data set: ADME, organism-based.
Data set [6] has as its target GABA-A receptor; alpha-1/beta-2/gamma-2 (Homo sapiens) (UniProt P14867+P47870+P18507). The data set is described as follows: Agonist activity at GABA alpha1beta2gamma2 receptor in human HEK293T at 3.3 to 300 uM at -50 mV holding potential by whole cell voltage clamp assay relative to control. The data set is classed as protein-complex assay.
Data set [7] in a line: Drug uptake in Sprague-Dawley rat lungs at 50 mg/kg, po. The data set is classed as ADME, organism-based, Lung. Conditions: in vivo; call rule not given here.
The subject of data set [8] is Mus musculus. In words: Potency index, ratio of ED50 of valproic acid to ED50 of compound anticonvulsant activity in ip dosed Kunming mouse assessed as MES-induced hind limb extension administered 0.5 hrs before MES stimulation. Type of data set: functional.
Data set [9] is described as follows: Noncompetitive inhibition of human LDH5 at 0.5 mM using sodium pyruvate as substrate by UV-VIS spectrophotometry method based Lineweaver-Burk plot analysis.
Data set [10] deals with Mus musculus. In words: Potency index, ratio of ED50 of stiripentol to ED50 of compound anticonvulsant activity in ip dosed Kunming mouse assessed as MES-induced hind limb extension administered 0.5 hrs before MES stimulation. Type of data set: functional.
The subject of data set [11] is Mus musculus. In words: Anticonvulsant activity in Kunming mouse assessed as MES-induced hind limb extension at 100 mg/kg, ip administered 0. 5 hrs before MES stimulation relative to control. The data set is classed as functional.

Regarding `COc1cc(OC)c(OC)cc1/C=C/COC(=O)/C=C/c1c(OC)cc(OC)c(OC)c1OC`, the Tmax in data set [1], in data set [4] and in data set [5] was 1 h in each case. For the same compound, the Drug uptake entry in data set [2], in data set [3] and in data set [7] was “Active” in each case. For the same compound, the %max in data set [6] was 356%.

In the case of `COc1cc(OC)c(OC)cc1/C=C/COC(=O)/C=C/c1cc(OC)c(OC)c(OC)c1OC`, the “Ratio ED50” value came out at 23.1 in data set [8] and 3.96 in data set [10]. The compound also yielded a Ki in data set [9] of 4.84 µM. The Activity in [11] was found to be 100%.
